Experimental data reported in patent US11596626B2, “Compound for use against pathogenic Neisseria and Haemophilus species and Moraxella catarrhalis” (priority 2017, dated 2023).
Entries after “also recorded” stand apart in the source; their conditions may differ.

Experiments:
[1] = tested on: immortalized human vaginal epithelial cells (MS74); assay: MTT assay of metabolic activity (cytotoxicity); assay type: cell-based; conditions: FIG. 13
Text: HeLa S3 cells were cultivated in Dulbecco's modified Eagle's medium (DMEM) medium supplemented with 10% fetal calf serum and passaged every 2-3 days. Primary human vaginal epithelial cells (hVEC/MS74) were obtained from A. J. Schaeffer (Feinberg School of Medicine, Northwestern University, Chicago, Ill.) and are derived from vaginal tissue of a post-menopausal person. The cell line was created through immortalization of these cells with human papilloma virus 16, E6 and E7 genes according to literature (N. Rajan et. al., Characterization of an immortalized human vaginal epithelial cell line. J Urol 163, 616-622 (2000)). MS74 were cultured on gelatine-coated cell culture dished using Dulbecco's modified Eagle's medium (DMEM) medium (biochrom) supplemented with 10% fetal calf serum, 1% non-essential amino acids and 1% pyruvate at 37° C. in 5% CO2 and subcultured when half confluency was reached.
All plates were coated overnight at 4° C. with 0.1% gelatine in PBS before use. 2×10^4 HeLa S3 or MS74 cells were incubated with the mentioned concentrations of NQNO in 100 μl of their respective medium and incubated for 2 days at 37° C. and 5% CO2. 10 μl of MTT solution (12 mM in PBS, sterile filtered with […]) were added. The cells were subsequently incubated for 2 h at 37° C. […] 0D550 was measured using a Thermo Fisher Varioskan Flash spectrophotometer.

[2] = tested on: multidrug-resistant N. gonorrhoeae isolate from Slovenia; assay: Growth curves in liquid culture (optical density) vs DMSO control; assay type: cell-based, Neisseria gonorrhoeae
Protocol: Growth experiments with NQNO were conducted against Neisseria gonorrhoeae strain MS11 (Edwards, M., et al., Antigenic analysis of gonococcal pili using monoclonal antibodies, J Exp Med, 1984. 160(6): p. 1782-91) and a multidrug-resistant N. gonorrhoeae isolate from Slovenia (Unemo M, Golparian O, Potočnik M, Jeverica S. Treatment failure of pharyngeal gonorrhoea with internationally recommended first-line ceftriaxone verified in Slovenia, September 2011. Euro Surveill. 2012; 17(25):pii=20200), Neisseria macacae, and Lactobacillus brevis. The bacteria were inoculated in GC (Difco™ GC medium Ref. 228950, BD Becton Dickinson) and PPM broth (15 g/L Proteon Pepton, 1 g/L soluble starch, 5 g/L NaCl, 4 g/L KH2PO4, 1 g/L K2HPO4, pH 7.5) (Neisseriae) or TSB (BBL™ Trypticase Soy Broth Ref 211768, BD Becton Dickinson) (Lactobacillus) supplemented with solvent (DMSO) or the indicated concentrations of NQNO (5-50 04) and their growth at 37° C. was monitored over the course of 10 h by optical density readings in 30 minute intervals. […]
Before every experiment, bacteria were pre-cultured in 5 ml liquid medium for at least 2 hours then harvested and resuspended in PBS (phosphate buffered saline). Optical density (OD) was determined and a volume equal to an OD of 0.2 was inoculated into 5 ml of the respective medium. […] Optical density was determined every 0.5 h.

[3] = tested on: N. gonorrhoeae; assay: Vaginal colonization of CEAtg female mice, re-isolation of gonococci by swab; assay type: in vivo, Neisseria gonorrhoeae
Protocol: By using genetically modified mice (CEA-transgenic; CEAtg mice), which express a human receptor for the gonococcal Opa-adhesin on their mucosal surface, it is possible to study the initial colonization of the upper genital tract by N. gonorrhoeae and to re-isolate these pathogens after intra-vaginal challenge (FIG. 7). 6 to 8 week old, female wildtype (black) or CEA-transgenic (CEAtg, red) mice were infected with N. gonorrhoeae. 2 h after infection, the animals were treated with 20 μl buffer containing solvent (DMSO) or 50 μM NQNO (Compound represented by the Formula (5)). 20 h later, vaginal swaps were taken and plated on selective agar. Each dot refers to bacteria isolated from an individual animal (n≥5) (cf. FIG. 7). […]
In a further experiment, experimental vaginal infection of female mice with N. gonorrhoeae was performed as previously described in the literature (P. Muenzner, V. Bachmann, J. Hentschel, W. Zimmermann, C. R. Hauck, Human-restricted bacterial pathogens block shedding of epithelial cells by stimulating integrin activation. Science 329, 1197-1201 (2010)). […] Serial dilutions of re-isolated bacteria were plated on GC agar containing chloramphenicol (10 μg/ml) and erythromycin (7 μg/ml) and the colonies were counted after 20 h of incubation at 37° C., 5% CO2.

## CCCCCCCCCc1cc(=O)c2ccccc2n1O [NQNO, 1-Hydroxy-2-nonylquinolin-4(1H)-one]
[1]; 50 μM, two days
  Metabolic activity (MTT): only slightly reduced metabolic activity
[1]; up to 25 μM, 2 days
  Cytotoxicity (metabolic activity, MTT): not harmed
[2]; 37° C., 10 h, FIG. 2
  Concentration leading to complete growth inhibition: ≤ 5 µM
[2]; mass concentration given for 5 μM
  Concentration leading to complete growth inhibition: < 1.4 µg/mL
[3]; CEAtg female mice, 20 μl of 50 μM topical 2 h after infection, swabs 20 h later, FIG. 7
  Number of re-isolated gonococci (vaginal colonization): significantly (***; p<0.001) reduces the number of re-isolated gonococci; also recorded: completely blocks vaginal colonization
[3]; CEAtg mice, 10 μl of 25 μM or 50 μM intravaginally 1 h after infection, swabs 24 h later, FIG. 15
  Re-isolated gonococci from the genital tract: hardly any gonococci could be re-isolated
